pIC50: −log10 of the molar value.
Target: T1, CBL-B (Homo sapiens, UniProt Q13191)
T1 construct: GST
Assay: CBL-B TR-FRET IC50 screening (E1/E2 ubiquitination, Biotin-Ubiquitin, Anti GST-Tb donor / Streptavidin-d2 acceptor)
Format: biochemical
Details: CBL-B 10 nM final; 11-point titration from 100 uM; binned A-F; read-out: CBL-B TR-FRET activity IC50

T1 sequence (Q13191 whole entry): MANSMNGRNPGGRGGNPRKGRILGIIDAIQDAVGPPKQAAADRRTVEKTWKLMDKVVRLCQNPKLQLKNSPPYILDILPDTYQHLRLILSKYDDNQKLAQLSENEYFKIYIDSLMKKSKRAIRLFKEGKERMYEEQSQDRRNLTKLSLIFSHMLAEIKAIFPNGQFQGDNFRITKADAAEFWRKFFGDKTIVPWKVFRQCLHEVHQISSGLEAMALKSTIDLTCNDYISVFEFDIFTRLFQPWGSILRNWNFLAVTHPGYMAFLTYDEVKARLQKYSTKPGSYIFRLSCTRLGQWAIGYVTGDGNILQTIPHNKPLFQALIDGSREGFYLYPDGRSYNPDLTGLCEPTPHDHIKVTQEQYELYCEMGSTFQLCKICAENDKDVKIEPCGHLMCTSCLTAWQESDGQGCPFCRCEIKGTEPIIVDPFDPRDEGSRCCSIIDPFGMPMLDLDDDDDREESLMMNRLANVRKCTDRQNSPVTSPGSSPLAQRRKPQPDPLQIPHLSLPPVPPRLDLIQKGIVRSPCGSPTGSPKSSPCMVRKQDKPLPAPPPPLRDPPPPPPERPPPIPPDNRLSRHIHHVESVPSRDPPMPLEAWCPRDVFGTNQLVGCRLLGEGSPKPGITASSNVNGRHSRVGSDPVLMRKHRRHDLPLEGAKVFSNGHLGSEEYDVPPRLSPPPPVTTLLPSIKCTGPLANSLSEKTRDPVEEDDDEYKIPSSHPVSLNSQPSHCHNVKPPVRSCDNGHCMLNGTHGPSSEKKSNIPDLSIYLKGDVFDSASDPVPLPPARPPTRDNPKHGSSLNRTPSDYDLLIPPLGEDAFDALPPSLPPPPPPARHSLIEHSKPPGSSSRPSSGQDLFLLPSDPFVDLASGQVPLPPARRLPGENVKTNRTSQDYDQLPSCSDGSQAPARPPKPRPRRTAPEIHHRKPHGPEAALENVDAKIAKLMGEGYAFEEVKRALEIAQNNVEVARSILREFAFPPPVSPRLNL

With `[2H]C([2H])([2H])n1cnnc1CC1(c2cccc(-n3cc4c(C(F)(F)F)cc([C@@H](C)N5CCC[C@H](C)C5)cn4c3=O)c2)COC1` [Compound 278_P2] as the molecule, how does the pIC50 read?
The pIC50 was > 7.00.

`C[C@@H]1CN(Cc2cc(C(F)(F)F)c3cn(-c4cccc(C5(c6nncn6C)CC(F)(F)C5)c4)c(=O)n3c2)CCO1` [Compound 279] was tested. Which pIC50 did it give?
Its pIC50 is 6.00 to 6.52.

`Cc1c[nH]nc1[C@H](c1cccc(-n2cc3c(C(F)(F)F)cc(CN4CCC[C@H](C)C4)cn3c2=O)c1)C1COC1` [Compound 280] was tested. Which pIC50 did it give?
The pIC50 was < 5.00.

How did the pIC50 turn out when `Cc1c[nH]nc1[C@@H](c1cccc(-n2cc3c(C(F)(F)F)cc(CN4CCC[C@H](C)C4)cn3c2=O)c1)C1COC1` [Compound 281] was run?
Its pIC50 is < 5.00.

`Cn1cnnc1[C@@H](c1cccc(-n2cc3c(C(F)(F)F)cc(CN4CC[C@H](C(F)(F)F)C4)cn3c2=O)c1)C1CCC1` [Compound 284] was tested. Which pIC50 did it give?
The pIC50 was 6.00 to 6.52.

With `Cn1cnnc1[C@@H](c1cccc(-n2cc3c(C(F)(F)F)cc(CN4CC5(CCC5)C4)cn3c2=O)c1)C1CCC1` [Compound 286] as the molecule, how does the pIC50 read?
The pIC50 was > 7.00.

`[2H]C([2H])([2H])n1cnnc1CC1(c2cccc(-n3cc4c(C(F)(F)F)cc([C@H](C)N5CCO[C@H](C)C5)cn4c3=O)c2)COC1` [Compound 287_P1] was tested. Which pIC50 did it give?
Its pIC50 is > 7.00.

How did the pIC50 turn out when `[2H]C([2H])([2H])n1cnnc1CC1(c2cccc(-n3cc4c(C(F)(F)F)cc([C@@H](C)N5CCO[C@H](C)C5)cn4c3=O)c2)COC1` [Compound 287_P2] was run?
The pIC50 was > 7.00.

`C[C@@H]1CN(Cc2cc(C(F)(F)F)c3cn(-c4cccc([C@H](c5nncn5C)C5CCC5)c4)c(=O)n3c2)CCS1` [Compound 290] was tested. Which pIC50 did it give?
Its pIC50 is > 7.00.

`C[C@@H]1CN(Cc2cc(C(F)(F)F)c3cn(-c4cccc([C@H](c5nncs5)C5CCC5)c4)c(=O)n3c2)CCO1` [Compound 291] was tested. Which pIC50 did it give?
Its pIC50 is < 5.00.

How did the pIC50 turn out when `C[C@H]1CCCN(Cc2cc(C(F)(F)F)c3cn(-c4cccc(Cc5nncn5C)c4)c(=O)n3c2)C1` [Compound 294] was run?
Its pIC50 is 5.52 to 6.00.

With `Cn1cnnc1[C@@H](c1cccc(-n2cc3c(C(F)(F)F)cc(CN4CC5(CCCC5)C4)cn3c2=O)c1)C1CCC1` [Compound 295] as the molecule, how does the pIC50 read?
The pIC50 was > 7.00.

With `COC1(C)CN(Cc2cc(C(F)(F)F)c3cn(-c4cccc([C@H](c5nncn5C)C5CCC5)c4)c(=O)n3c2)C1` [Compound 296] as the molecule, how does the pIC50 read?
Its pIC50 is > 7.00.

`Cn1cnnc1[C@@H](c1cccc(-n2cc3c(C(F)(F)F)cc(CN4CC(F)C4)cn3c2=O)c1)C1CCC1` [Compound 297] was tested. Which pIC50 did it give?
Its pIC50 is > 7.00.

`Cn1cnnc1[C@@H](c1cccc(-n2cc3c(C(F)(F)F)cc(CN4CC(C)(F)C4)cn3c2=O)c1)C1CCC1` [Compound 298] was tested. Which pIC50 did it give?
The pIC50 was > 7.00.

How did the pIC50 turn out when `Cn1cnnc1[C@@H](c1cccc(-n2cc3c(C(F)(F)F)cc(CN4CC(F)(F)C4)cn3c2=O)c1)C1CCC1` [Compound 299] was run?
The pIC50 was > 7.00.

How did the pIC50 turn out when `C[C@@H]1CN(Cc2cc(C(F)(F)F)c3cn(-c4cccc([C@@H](c5nncs5)C5CCC5)c4)c(=O)n3c2)CCO1` [Compound 300] was run?
Its pIC50 is 5.52 to 6.00.

How did the pIC50 turn out when `C[C@@H]1CN(Cc2cc(C(F)(F)F)c3cn(-c4cccc([C@H](c5nncn5C)C5COC5)c4)c(=O)n3c2)CCO1` [Compound 304] was run?
Its pIC50 is > 7.00.

How did the pIC50 turn out when `Cn1cnnc1C1(c2cccc(-n3cc4c(C(F)(F)F)cc(CN5CCc6ncsc6C5)cn4c3=O)c2)CC2(CC2)C1` [Compound 307] was run?
The pIC50 was > 7.00.

How did the pIC50 turn out when `C[C@H]1CCCN(Cc2cc(C(F)(F)F)c3cn(-c4cccc(C5(c6nncn6C)CC6(CCC6)C5)c4)c(=O)n3c2)C1` [Compound 310] was run?
The pIC50 was > 7.00.

How did the pIC50 turn out when `C[C@H]1CCCN(Cc2cc(C(F)(F)F)c3cn(-c4cccc(C5(c6nncs6)CC6(CC6)C5)c4)c(=O)n3c2)C1` [Compound 311] was run?
The pIC50 was < 5.00.

With `COC1CN(Cc2cc(C(F)(F)F)c3cn(-c4cccc([C@H](c5nncn5C)C5CCC5)c4)c(=O)n3c2)C1` [Compound 312] as the molecule, how does the pIC50 read?
The pIC50 was > 7.00.

How did the pIC50 turn out when `Cn1cnnc1[C@@H](c1cccc(-n2cc3c(C(F)(F)F)cc(CN4CC(C(F)(F)F)C4)cn3c2=O)c1)C1CCC1` [Compound 313] was run?
Its pIC50 is > 7.00.

With `C[C@@H]1CN(Cc2cc(C(F)(F)F)c3cn(-c4cccc(N(c5nncn5C)C5CCC5)c4)c(=O)n3c2)CCO1` [Compound 314] as the molecule, how does the pIC50 read?
Its pIC50 is < 5.00.

How did the pIC50 turn out when `Cn1cnnc1[C@@H](c1cccc(-n2cc3c(C(F)(F)F)cc(CN4CCc5scnc5C4)cn3c2=O)c1)C1CCC1` [Compound 315] was run?
The pIC50 was > 7.00.
